Assay [1] in a line: Displacement of mant-GTP from Bacillus subtilis FtsZ by spectrofluorometric assay.
Assay [2] relates to Bacillus subtilis. The experiment in a line: Antibacterial activity against Bacillus subtilis. It counts as functional.
Assay [3] can be described thus: Inhibition of Escherichia coli FtsZ polymerization expressed in Escherichia coli BL21 assessed as reduction in light scattering intensity in presence of GTP by fluorescence spectrometric analysis.
Assay [4] deals with Staphylococcus aureus. Description: Antibacterial activity against methicillin-resistant Staphylococcus aureus ATCC BAA-41 after 18 hrs by broth microdilution method. To be noted: ATCC BAA-41, 18 h. It is filed as functional. On the technique in general: In broth dilution the organism is exposed to a series of concentrations in liquid medium.
Assay [5] concerns Staphylococcus aureus. Description: Antibacterial activity against methicillin-sensitive Staphylococcus aureus after 18 hrs by broth microdilution method. It counts as functional.
The test system of assay [6] is Escherichia coli. Description: Antibacterial activity against Escherichia coli ATCC 25922 after 18 hrs by broth microdilution method. It counts as functional. Particulars: ATCC 25922, 18 h.
The subject of assay [7] is Klebsiella pneumoniae. Description: Antibacterial activity against Klebsiella pneumoniae ATCC BAA-1144 after 18 hrs by broth microdilution method. It counts as functional. To be noted: ATCC BAA-1144, 18 h.
Assay [8] relates to Enterococcus faecalis. Description: Antimicrobial activity against vancomycin-sensitive Enterococcus faecalis after 18 hrs by broth microdilution method. It is filed as functional.
Assay [9] concerns Enterococcus faecalis. Description: Antimicrobial activity against vancomycin-resistant Enterococcus faecalis after 18 hrs by broth microdilution method. It is filed as functional.
The subject of assay [10] is Mycobacterium tuberculosis. The experiment in a line: Antibacterial activity against Mycobacterium tuberculosis TN587 clinical isolates measured every 24 hrs for 7 days by MABA assay. It is filed as functional.
The subject of assay [11] is Mycobacterium tuberculosis. The experiment in a line: In vivo antibacterial activity against Mycobacterium tuberculosis H37Rv infected in GKO-TB mouse assessed as reduction in bacterial load in spleen at 50 mg/kg, ip or po bid for 10 consecutive days. It is filed as functional.
For assay [12], the system named is Mycobacterium tuberculosis. Description: Antibacterial activity against Mycobacterium tuberculosis NHN20 clinical isolates measured every 24 hrs for 7 days by MABA assay. It is filed as functional. (In general: Alamar Blue is a resazurin reagent that responds to reducing activity.)
In assay [13] the test system is Mycobacterium tuberculosis. Description: Antibacterial activity against Mycobacterium tuberculosis W210 clinical isolates measured every 24 hrs for 7 days by MABA assay. It is filed as functional.
In assay [14] the test system is Mycobacterium tuberculosis. Description: Antibacterial activity against Mycobacterium tuberculosis H37Rv measured every 24 hrs for 7 days by MABA assay. It counts as functional.
The test system of assay [15] is Mycobacterium tuberculosis. The experiment in a line: Antibacterial activity against Mycobacterium tuberculosis NHN382 clinical isolates measured every 24 hrs for 7 days by MABA assay. It is filed as functional.
For assay [16], the system named is Mycobacterium tuberculosis. The experiment in a line: In vivo antibacterial activity against Mycobacterium tuberculosis str. Erdman infected in C57BL/6 mouse assessed as reduction in bacterial load in lungs at 50 mg/kg, ip bid on day 5 to 14 post infection measured on day 15 post infection. It is filed as functional, Erdman = ATCC 35801.
The test system of assay [17] is Mycobacterium tuberculosis. The experiment in a line: Antimycobacterial activity against Mycobacterium tuberculosis H37Rv after 2 weeks. It is filed as functional. Particulars: 336 h.
Assay [18] relates to Staphylococcus aureus. Description: Antibacterial activity against Staphylococcus aureus ATCC 29213 after 18 hrs by broth microdilution assay. Particulars: ATCC 29213, 18 h. It is filed as functional.
Assay [19] deals with T1, Cell division protein FtsZ (Staphylococcus aureus, UniProt P0A031).
T1 sequence (P0A031 whole entry): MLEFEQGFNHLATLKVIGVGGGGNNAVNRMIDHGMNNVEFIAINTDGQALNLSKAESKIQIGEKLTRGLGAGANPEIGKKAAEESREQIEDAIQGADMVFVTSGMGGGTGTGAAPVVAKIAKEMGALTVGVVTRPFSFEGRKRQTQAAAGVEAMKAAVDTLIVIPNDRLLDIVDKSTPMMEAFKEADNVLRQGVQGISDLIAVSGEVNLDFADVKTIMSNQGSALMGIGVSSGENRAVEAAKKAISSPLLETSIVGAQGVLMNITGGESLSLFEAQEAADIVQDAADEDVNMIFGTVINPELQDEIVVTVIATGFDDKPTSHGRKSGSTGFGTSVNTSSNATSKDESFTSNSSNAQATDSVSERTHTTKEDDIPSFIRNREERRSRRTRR
The experiment in a line: Inhibition of Staphylococcus aureus ATCC 29213 N-terminal His6-tagged FtsZ GTPase activity expressed in Escherichia coli BL21(DE3) assessed as reduction in inorganic phosphate release preincubated for 10 mins followed by GTP addition after 30 mins.

Assay [20] deals with Escherichia coli. Description: Antibacterial activity against Escherichia coli ATCC 25922 after 18 hrs by broth microdilution assay. To be noted: ATCC 25922, 18 h. It counts as functional.
Assay [21] in a line: Inhibition of Escherichia coli FtsZ GTPase activity expressed in Escherichia coli BL21 preincubated for 5 mins followed by GTP addition after 15 mins by malachite green based spectrophotometric analysis.

Here are results for 15 compounds from ChEMBL document CHEMBL3865781, “Recent advances in the discovery and development of antibacterial agents targeting the cell-division protein FtsZ” (Bioorg Med Chem, 2016).

A word on the Kd: it is the concentration at which binding is half-saturated. By MIC is commonly meant the least concentration at which growth counts as inhibited. A word on the IC50: it is the concentration that gives 50% inhibition. As usually defined, the MIC99 is the lowest concentration that inhibits either 99% of growth or 99% of the strains tested, depending on the study.

Converted amounts (≈) assume the structure as drawn.

As to `O=C(Oc1cc(OC(=O)c2cc(O)c(O)c(O)c2)c2ccccc2c1)c1cc(O)c(O)c(O)c1`, the Kd in assay [1] was 0.4 to 0.8 µM. Also, the minimal inhibitory concentration (MIC) in assay [2] turned out to be 100 µM (≈ 46.4 µg/mL).
For the compound `O=C(O)/C=C/c1ccc(O)c(O)c1` [CAFFEIC ACID], the IC50 in [3] amounted to 106 µM. The minimal inhibitory concentration (MIC) lay in the range of 2 to 8 µg/mL (≈ 11.1 to 44.4 µM) in [4]; 2 to 8 µg/mL (≈ 11.1 to 44.4 µM) in assay [5]; 32 to 128 µg/mL (≈ 178 to 710 µM) in assay [6]; 32 to 128 µg/mL (≈ 178 to 710 µM) in [7]; 4 to 16 µg/mL (≈ 22.2 to 88.8 µM) in [8].
As for `C=CCc1ccc(O)c(OC)c1` [EUGENOL], the minimal inhibitory concentration (MIC) in assay [9] fell in the range of 4 to 16 µg/mL (≈ 24.4 to 97.4 µM); in assay [4] it was 2 to 8 µg/mL (≈ 12.2 to 48.7 µM); in assay [5], 2 to 8 µg/mL (≈ 12.2 to 48.7 µM); in assay [6] it was 32 to 128 µg/mL (≈ 195 to 780 µM); in assay [7], 32 to 128 µg/mL (≈ 195 to 780 µM); in assay [8] it was 4 to 16 µg/mL (≈ 24.4 to 97.4 µM). Moreover, the IC50 in assay [3] is over 250 µM.
With `Cc1nc2ccccc2n1C(=O)/C=C/c1ccc(Cl)cc1Cl`, the MIC in [4] is 2 to 8 µg/mL (≈ 6.04 to 24.2 µM); in assay [5] it was 2 to 8 µg/mL (≈ 6.04 to 24.2 µM); in assay [6], 32 to 128 µg/mL (≈ 96.6 to 386 µM); in [7], 32 to 128 µg/mL (≈ 96.6 to 386 µM); in [8] it was 4 to 16 µg/mL (≈ 12.1 to 48.3 µM).
For the compound `CN(C)c1cc2[nH]c(C3CCCCC3)nc2cc1NC(=O)c1ccc(OC(F)(F)F)cc1F`, the MIC99 in [10] was 0.31 µg/mL (≈ 0.667 µM); in [12], 0.24 µg/mL (≈ 0.517 µM); in [13], 0.47 µg/mL (≈ 1.01 µM); in [14] it was 0.31 µg/mL (≈ 0.667 µM); in assay [15], 0.31 µg/mL (≈ 0.667 µM). For the same compound, the figures for the Activity in assay [11] and in assay [16] were 3.9 - 5 log10CFU and 5.7 - 6.3 log10CFU, respectively.
For the compound `COc1cc(OC)c(OC)cc1/C=C/C(=O)O`, the IC50 in assay [3] came to 149 µM. The MIC in assay [4] was 2 to 8 µg/mL (≈ 8.39 to 33.6 µM); in assay [5], 2 to 8 µg/mL (≈ 8.39 to 33.6 µM); in assay [6], 32 to 128 µg/mL (≈ 134 to 537 µM); in [7], 32 to 128 µg/mL (≈ 134 to 537 µM); in [8] it was 4 to 16 µg/mL (≈ 16.8 to 67.2 µM).
Regarding `O=c1ccc2cc(CCO)c(O)cc2o1`, in assay [17], the MIC came out at 60 µg/mL (≈ 291 µM).
As for `CCc1ccc(C(=O)Nc2cc3nc(C4CCCCC4)[nH]c3cc2N(C)C)cc1`, the MIC99 in assay [10], in [13], in assay [14] and in assay [15] was 0.16 µg/mL (≈ 0.41 µM) each time.
Turning to `O=C(O)/C=C/c1ccc(O)cc1` [COUMARIC ACID], the IC50 in assay [3] was 190 µM. Also, the minimal inhibitory concentration (MIC) in assay [4] is 2 to 8 µg/mL (≈ 12.2 to 48.7 µM); in [5], 2 to 8 µg/mL (≈ 12.2 to 48.7 µM); in assay [6] it was 32 to 128 µg/mL (≈ 195 to 780 µM); in assay [7] it was 32 to 128 µg/mL (≈ 195 to 780 µM); in assay [8] it was 4 to 16 µg/mL (≈ 24.4 to 97.5 µM).
Consider `CC(C)(C)c1ccc(-c2ncnc3c(CNC(=N)N)cccc23)cc1`, for which the results for the minimal inhibitory concentration (MIC) in assay [18] and in assay [20] were 449 µM (≈ 150 µg/mL) and 897 µM (≈ 299 µg/mL), respectively. Also, in assay [19], the IC50 is 317 µM.
Turning to `CCCCOC(=O)Nc1cc2nc(C3CCCCC3)[nH]c2cc1N(C)C`, the MIC99 in assay [10] turned out to be 0.13 µg/mL (≈ 0.363 µM); in assay [13], 0.06 µg/mL (≈ 0.167 µM); in assay [14], 0.06 µg/mL (≈ 0.167 µM); in assay [15] it was 0.06 µg/mL (≈ 0.167 µM).
As to `COc1ccc(/C=C/C(=O)O)cc1OC` [O,O'-DIMETHYLCAFFEIC ACID], the half-maximal inhibitory concentration (IC50) in assay [3] was over 250 µM. Besides, the minimal inhibitory concentration (MIC) was 2 to 8 µg/mL (≈ 9.61 to 38.4 µM) in assay [4]; 2 to 8 µg/mL (≈ 9.61 to 38.4 µM) in assay [5]; 32 to 128 µg/mL (≈ 154 to 615 µM) in assay [6]; 32 to 128 µg/mL (≈ 154 to 615 µM) in assay [7]; 4 to 16 µg/mL (≈ 19.2 to 76.8 µM) in assay [8].
For `O=C(O)/C=C/c1ccccc1` [CINNAMIC ACID], the 50% inhibitory concentration (IC50) in assay [3] was 239 µM. Besides, the MIC in assay [4] fell in the range of 2 to 8 µg/mL (≈ 13.5 to 54 µM); in assay [5], 2 to 8 µg/mL (≈ 13.5 to 54 µM); in [6], 32 to 128 µg/mL (≈ 216 to 864 µM); in assay [7], 32 to 128 µg/mL (≈ 216 to 864 µM); in assay [8] it was 4 to 16 µg/mL (≈ 27 to 108 µM).
Turning to `COc1cc2ccc(=O)oc2cc1O` [SCOPOLETIN], the IC50 in assay [3] was 41 µM; in assay [21], 23 µM. The MIC is 2 to 8 µg/mL (≈ 10.4 to 41.6 µM) in assay [4]; 42 µg/mL (≈ 219 µM) in assay [17]; 2 to 8 µg/mL (≈ 10.4 to 41.6 µM) in assay [5]; 32 to 128 µg/mL (≈ 167 to 666 µM) in assay [6]; 32 to 128 µg/mL (≈ 167 to 666 µM) in assay [7]; 4 to 16 µg/mL (≈ 20.8 to 83.3 µM) in assay [8].
In assay [2], `O=C(Oc1cc(OC(=O)c2ccc(O)c(Cl)c2)c2ccccc2c1)c1ccc(O)c(Cl)c1` registered an MIC of 13 µM (≈ 6.1 µg/mL).
